The text below walks through data of ChEMBL document CHEMBL1144635, “Lead optimization of methionine aminopeptidase-2 (MetAP2) inhibitors containing sulfonamides of 5,6-disubstituted anthranilic acids” (Bioorg Med Chem Lett, 2007).

The nature of data set [1]: Oral bioavailability in mouse at 30 mg/kg, po. Type of data set: ADME, organism-based. The note with it: in vivo.
Data set [2] concerns HT-1080. Nature of the data set: Antiproliferative activity against HT1080 cells. To be noted: Homo sapiens.
Data set [3] in a line: Half life in mouse at 10 mg/kg, iv. The format is ADME, organism-based. Also noted: dose 10 mg/kg, route intravenous. The note with it: in vivo.
Data set [4] in a line: Cmax in mouse at 30 mg/kg, po. The format is ADME, organism-based. The note with it: in vivo. Also noted: dose 30 mg/kg, route oral.
Data set [5] can be described thus: Clearance in mouse at 10 mg/kg, iv. Type of data set: ADME, organism-based. Further details: dose 10 mg/kg, route intravenous. The note with it: in vivo.
A short description of data set [6]: Volume of distribution in mouse at 10 mg/kg, iv. Further details: dose 10 mg/kg, route intravenous. Type of data set: ADME, organism-based. To be noted: in vivo, read-out: Vdss.
For data set [7], the system named is HT-1080. Briefly: Antiproliferative activity against HT1080 cells in presence of 40 mg/ml HSA. To be noted: Homo sapiens.

One may read the bioavailability as the share of a dose that reaches the circulation, judged against a reference dose that is usually intravenous. The low end stands for poor availability, the high end for good availability. A word on the pEC50: it is −log10 of the EC50, conventionally taken in molar units. The half-life is the time in which the quantity being followed falls by half. A word on the Cmax: it is the highest concentration seen after dosing. A word on the clearance: it is a measure of how efficiently the substance is removed, as volume per time. A lower clearance goes with a low capacity for elimination.

pEC50: −log10 of the molar value.

`CCc1ccc(NS(=O)(=O)c2ccccn2)c(C(=O)O)c1C`: in data set [1], the bioavailability worked out at 86%. In data set [2], the pEC50 is 4.92. Moreover, the half-life in data set [3] was 144 min. This compound also registered a peak concentration (Cmax) in data set [4] of 34000 nM. The clearance in data set [5] is 26.7 mL/min/kg. Besides, in data set [6], the Vd worked out at 5.5 L/kg.

Take `CCN(CC)C/C=C\c1cc(F)ccc1S(=O)(=O)Nc1ccc(-c2ccoc2)c(OC)c1C(=O)O`: the results for the negative-log EC50 (pEC50) in data set [7] and in data set [2] were 6.70 and 7.22, respectively.

In turn, `COc1c(-c2ccoc2)ccc(NS(=O)(=O)c2ccc(F)cc2Br)c1C(=O)O` showed a pEC50 in data set [2] of 4.96.

`CCc1ccc(NS(=O)(=O)c2ccc(F)cc2)c(C(=O)O)c1OC` had a pEC50 in data set [2] of 5.85.

On to `CCc1ccc(NS(=O)(=O)c2ccc(F)cc2)c(C(=O)O)c1C`, for which the negative logarithm of the EC50 (pEC50) in data set [2] is 5.31.

Regarding `CCc1ccc(NS(=O)(=O)c2ccc(F)cc2/C=C\CN(CC)CC)c(C(=O)O)c1OC`, the negative logarithm of the EC50 (pEC50) was 6.82 in data set [7] and 7.15 in data set [2]. The compound further gave a bioavailability in data set [1] of 16%. This compound gave a half-life in data set [3] of 12 min. Besides, the Cmax in data set [4] is 100 nM. In data set [5], this compound gave a clearance of 675 mL/min/kg. Besides, the Vd in data set [6] was found to be 13.8 L/kg.

`COc1c(-c2ccoc2)ccc(NS(=O)(=O)c2ccc(F)cc2)c1C(=O)O` showed a negative-log EC50 (pEC50) in data set [2] of 5.42.

`COc1c(-c2ccoc2)ccc(NS(=O)(=O)c2ccc(F)cc2NCCCN(C)C)c1C(=O)O`: the negative logarithm of the EC50 (pEC50) in data set [7] was 5.54; in data set [2] it was 6.49.

As to `CCc1ccc(NS(=O)(=O)c2ccccc2NCCC2CCCN2C)c(C(=O)O)c1OC` (centres undefined), the pEC50 was 5.72 in data set [7] and 6.32 in data set [2]. In addition, in data set [1], the bioavailability came to 13%. Further, the half-life in data set [3] is 18 min. The compound also displayed a Cmax in data set [4] of 900 nM. The compound further showed a clearance in data set [5] of 83.3 mL/min/kg. Further, in data set [6], the Vd worked out at 2 L/kg.

In the case of `CCc1ccc(NS(=O)(=O)c2ccc(F)cc2)c(C(=O)O)c1OCCN`, the bioavailability in data set [1] was 38%. For the same compound, in data set [3], the half-life is 18 min. Further, in data set [4], the Cmax was 2400 nM. In data set [5], this compound gave a clearance of 50 mL/min/kg. Also, the Vd in data set [6] amounted to 1.1 L/kg.

In data set [2], `CCc1ccc(NS(=O)(=O)c2ccc(F)cc2CCCN(CC)CC)c(C(=O)O)c1OCCN` gave a negative-log EC50 (pEC50) of 4.52.

For `CCc1ccc(NS(=O)(=O)c2ccccc2NCCCCN(C)C)c(C(=O)O)c1OC`, the values for the negative-log EC50 (pEC50) in data set [7] and in data set [2] were 6.43 and 6.60, respectively. In data set [1], this compound yielded a bioavailability of 31%. The same compound gave a half-life in data set [3] of 18 min. Also, the Cmax in data set [4] is 5900 nM. The compound further had a clearance in data set [5] of 35 mL/min/kg. Further, in data set [6], the Vd is 0.8 L/kg.

Take `CCCc1ccccc1S(=O)(=O)Nc1ccc(CC)c(OCCN)c1C(=O)O`: the negative-log EC50 (pEC50) in data set [2] is 4.08.

Regarding `CCc1ccc(NS(=O)(=O)c2ccccc2NCCCN2CCCCC2C)c(C(=O)O)c1OC` (centres undefined), the results for the pEC50 in data set [7] and in data set [2] were 5.92 and 6.43, respectively.
